Assay results taken from patent US20230312550A1, “N-(2-(4-CYANOTHIAZOLIDIN-3-YL)-2-OXOETHYL)-QUINOLINE-4-CARBOXAMIDES” (AstraZeneca AB, priority 2020, published 2023).
pIC50, pKd: −log10 of the molar value. In brackets after ≈: the same amount, converted by molar mass. Read-outs that look alike come from different tables or passages of the source.

Assays:
[1] = biological target: human dipeptidylpeptidase 9 (hDPP9) (Homo sapiens (Human), UniProt Q86TI2); experiment: hDPP9 inhibition assay; format: biochemical; settings: hDPP9 0.4 nM, Ala-Pro-amino-methylcoumarin 5 μM, n = 1
Description: (§1) Compounds were tested in a biochemical inhibition assay using human dipeptidylpeptidase 9 (hDPP9) enzyme at 0.4 nM FAC (BPS Bioscience, #80090) and the substrate Ala-Pro-amino-methylcoumarin (BPS Bioscience #80305) at 5 μM FAC. The enzymatic reactions were conducted in duplicate at rt for 30 min in 50 μL DPP assay buffer (BPS Bioscience, #80300). […] The plates were read on a Tecan Infinite M1000 microplate reader with excitation 340 nm and emission 460 nm. Data were analyzed in Graph Pad Prism. IC50 values were determined by plotting % inhibition versus log compound concentration and using a one site dose response model. Raw data signals were normalized using 1% DMSO as 0% control and no enzyme as 100% inhibitor control.

[2] = biological target: Prolyl endopeptidase, Prolyl Oligopeptidase (hPREP) (Homo sapiens (Human), UniProt P48147); experiment: hPrep inhibition assay; format: biochemical; settings: hPREP 0.6 nM, Z-Gly-Pro-amino-methylcoumarin 50 μM; read-out: PREP IC50
Procedure, shortened: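 Recombinant human PREP at 0.6 nM final with Z-Gly-Pro-AMC substrate at 50 μM final in Tris-HCl pH 7.5, NaCl, Triton X-100, glutathione; 15 min rt preincubation then 20 min rt reaction in dark. AMC fluorescence (ex 340/em 460 nm); IC50 from one-site dose-response fit of % inhibition.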

hFAP (M39-A757) = hFAP (M39-A757) (Homo sapiens (Human), UniProt Q12884); experiment: hFAP binding assay (surface plasmon resonance); settings: SPR, 20° C.; for hFAP Binding assay k(off) / hFAP Binding assay k(on): single cycle kinetics; for pKd: n = 1 or geometric mean n = 2-4
[3] = biological target: Fibroblast Activation Protein alpha (FAP) (Mus musculus (Mouse), UniProt P97321); experiment: in vivo
Description: The effect of test compound on FAP enzyme activity in mouse plasma was evaluated in an enzymatic assay using the Fibroblast Activation Protein alpha (FAP) specific fluorogenic substrate dipeptide-Coumarin, Ala-Pro-AMC, (ARI-3144).
Male C57Bl/6 mice (Charles River, Germany), 8 weeks of age, were single housed in a temperature-controlled room with a 12-hour light/dark cycle (06:00-18:00 light). The mice had ad libitum access to water and rodent chow diet (R70, Lactamin, Kimstad, Sweden), and were acclimated for 5 days upon arrival. After acclimation, all mice received a single oral dose of test compound (3 or 10 mg/kg). Blood samples for whole blood compound exposure measurements were taken at 0.25, 0.5, 1, 2, 4, 8 and 24 h post oral dosing. Samples were collected in EDTA capillary tubes (20 μL, K2E, REF 19.447) and were transferred to a 96-deep well plate (NUNC, Thermo Discher Scientific) and stored at −20° C. until further analyses were performed. Blood samples for plasma FAP enzyme activity measurements were taken at 0, 0.25, 0.5, 1, 2, 8 and 24 h post dosing. 25 μL of whole blood was collected in EDTA Microvette® CB 300 (K2E, REF 16.444.100) tubes, and were centrifuged at 4,000×g for 5 min. 10 μL of plasma was then transferred to PCR tubes and stored at −20° C. until further analysis was performed. All blood samples were taken by vena saphena puncture.
Recombinant human FAP (PB-17-1837, construct PL-17-0278, cd33-FAP (27-757)-6His, Mw85926 Da) was used as a standard for this assay. […] The plates were read on a Beckman Paradigm reader with excitation 360 nm and emission 465 nm. Fluorescence measurements were performed with kinetic read every 5 minutes for 60 min at room temperature. Data were analyzed in Excel (IDBS XLfit Add-In) using a Linear Regression (y=k*x+m) model to prepare a human recombinant FAP standard curve.
On the day of the assay, plasma was diluted (1:2) to 20 μL volume in buffer (PBS, 0.1% BSA) and 7.5 μL was transferred to the assay plate (384-well black, fluotrack PS, Greiner 781076). Ala-Pro-AMC (stock solution in 10 mM DMSO) was diluted in buffer (PBS, 0.1% BSA) to 150 μM concentration (180 μL stock solution to 12 mL buffer) and 7.5 μL added to the assay plate followed by a pipetting mix. The plates were read on a Beckman Paradigm reader with excitation 360 nm and emission 465 nm. Fluorescence measurements were performed with kinetic read every 5 minutes for 60 minutes at room temperature. As noted above, FAP cleaves Ala-Pro-AMC to release free AMC which is measured as a fluorescent signal.
The in vivo potency IC50 of each test compound was then estimated by relating the plasma exposure C of the compound to target engagement E in plasma using the following equation:
where E0 is the FAP baseline in plasma prior to dosing and Imax is the maximum effect of the compound. Data from each target engagement experiment were considered separately and therefore slightly different estimates of FAP baseline for each compound were obtained. […] The parameter estimation was done in Phoenix WinNonlin Certara build 8.1.0.3530 with the algorithm ‘Naïve pooled’ as parameter estimation method.

FAP [4] = biological target: FAP (Mus musculus (Mouse), UniProt P97321); experiment: FAP plasma inhibition assay, mouse plasma; format: biochemical; settings: mouse plasma diluted 1:67, Ala-Pro-AMC 75 μM
Procedure, shortened: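 K2EDTA plasma served as enzyme source, human diluted 1:40 and mouse 1:67, in PBS with 0.1% BSA. Compounds ran as a 10-point 3-fold series from 500 nM final, in duplicate, 40 min at rt in the dark, with fluorescence read against a pre-substrate blank. IC50 came from % inhibition versus log concentration.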

[5] = biological target: human dipeptidylpeptidase 7 (hDPP7) (Homo sapiens (Human), UniProt Q9UHL4); experiment: hDPP7 inhibition assay; format: biochemical; settings: hDPP7 15 nM, Ala-Pro-amino-methylcoumarin 5 μM, n = 1
Description: Compounds were tested in a biochemical inhibition assay using human dipeptidylpeptidase 7 (hDPP7) enzyme at 15 nM FAC (BPS Bioscience, #80070) and the substrate Ala-Pro-amino-methylcoumarin (BPS Bioscience, #80305) at 5 μM FAC. The enzymatic reactions were conducted in duplicate at rt for 30 min in 50 μL DPP assay buffer (BPS Bioscience, #80300). Compound solutions (in DMSO) at 10 CR, 3 fold dilution series were prepared in assay buffer ten-fold higher than the final concentration, and 5 μL of the dilution was added to a 50 μL reaction so that the highest compound concentration was 100 μM FAC and the concentration of DMSO was 1% in all wells. The plates were read on a Tecan Infinite M1000 microplate reader with excitation 340 nm and emission 460 nm. Data were analyzed in Graph Pad Prism. IC50 values were determined by plotting % inhibition versus log compound concentration and using a one site dose response model. Raw data signals were normalized using 1% DMSO as 0% control and no enzyme as 100% inhibitor control.

[6] = biological target: human dipeptidylpeptidase 8 (hDPP8) (Homo sapiens (Human), UniProt Q6V1X1); experiment: hDPP8 inhibition assay; format: biochemical; settings: Ala-Pro-amino-methylcoumarin 5 μM, n = 1
Description: as §1, with “The” for “Compounds were tested in a biochemical inhibition assay using human dipeptidylpeptidase 9 (hDPP9) enzyme at 0.4 nM FAC (BPS Bioscience, #80090) and the substrate Ala-Pro-amino-methylcoumarin (BPS Bioscience #80305) at 5 μM FAC. The”

Kinetic solubility = settings: kinetic from dmso stock, Solubility, kinetic solubility; n = 1 or average of n = 2-3
Description: (§2) Kinetic solubility was measured as described in Comput Aided Mol Des 2015, 29, 795.

[7] = Metabolic stability in rat hepatocytes (rHep); settings: n = 1 or geometric mean of n = 2-3
[8] = Metabolic stability in human hepatocytes (hHep); format: in vitro ADME; settings: n = 1 or geometric mean of n = 2
Caco-2 cell permeability = settings: human
Description: (§3) Caco-2 cell permeability was measured as described in Mol Pharm 2017, 14, 1601.

[9] = Metabolic stability in human liver microsomes (HLM); settings: human, HLM CLint, n = 1 or average of n = 2-3
Description: (§4) Metabolic stability in HLM was measured as described in J Comput Aided Mol Des 2015, 29, 795.

physchem = settings: kinetic from dmso stock
Description: as §2

in vitro [10] = settings: human, microsomes, HLM CLint
Description: as §4

in vitro [11] = settings: human, Caco-2
Description: as §3

[12] = biological target: human Fibroblast activation protein alpha (hFAP) (Homo sapiens (Human), UniProt Q12884); experiment: hFAP inhibition assay (tight binders); format: biochemical; settings: Ala-Pro-AMC 20 μM, n = 1 or geometric mean n = 2-6; also: hFAP 2.4 pM
Description: The plates were read on a PHERAstar® reader with excitation 340 nm and emission 460 nm. Data were analyzed in Genedata Screener®. IC50 values were determined by plotting % inhibition versus log compound concentration and using a one site dose response model.

[13] = rat, hepatocytes
FAP [14] = biological target: FAP (Homo sapiens (Human), UniProt Q12884); experiment: hFAP inhibition assay; format: biochemical; settings: hFAP […], Ala-Pro-AMC 20 μM; n = 1 or geometric mean n = 2-3
Procedure, shortened: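 Human FAP (0.48 nM) in 100 mM Tris HCl, 100 mM NaCl, 0.05% Chaps, pH 7.4 was preincubated 15 min at rt in the dark with compounds (10-point, 3-fold series from 50 μM). Substrate was added from a 40 μM solution, then 30 min at rt. Fluorescence read at ex 340/em 460 nm; IC50 from one-site dose-response fit of % inhibition.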

human Fibroblast activation protein alpha (hFAP), sequence (Q12884 38-760): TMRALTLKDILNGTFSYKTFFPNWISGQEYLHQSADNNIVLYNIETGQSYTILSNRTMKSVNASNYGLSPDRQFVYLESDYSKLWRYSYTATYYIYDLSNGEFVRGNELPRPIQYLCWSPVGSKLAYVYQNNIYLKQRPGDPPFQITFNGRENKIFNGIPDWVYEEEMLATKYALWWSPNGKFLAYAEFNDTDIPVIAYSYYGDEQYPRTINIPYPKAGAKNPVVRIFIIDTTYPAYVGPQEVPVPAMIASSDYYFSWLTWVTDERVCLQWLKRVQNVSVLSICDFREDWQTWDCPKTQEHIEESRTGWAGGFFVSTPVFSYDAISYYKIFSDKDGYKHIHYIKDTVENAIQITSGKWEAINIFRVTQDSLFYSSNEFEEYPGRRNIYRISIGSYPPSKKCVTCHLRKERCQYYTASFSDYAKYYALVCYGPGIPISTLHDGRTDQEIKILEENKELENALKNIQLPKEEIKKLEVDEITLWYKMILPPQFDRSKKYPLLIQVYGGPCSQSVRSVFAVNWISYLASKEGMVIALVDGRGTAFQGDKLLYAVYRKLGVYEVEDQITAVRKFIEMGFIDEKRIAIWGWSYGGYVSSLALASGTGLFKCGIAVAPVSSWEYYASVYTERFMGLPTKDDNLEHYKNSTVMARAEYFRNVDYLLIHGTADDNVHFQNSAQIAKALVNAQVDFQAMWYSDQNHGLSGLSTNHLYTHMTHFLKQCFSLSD
human dipeptidylpeptidase 9 (hDPP9), sequence (Q86TI2 whole entry): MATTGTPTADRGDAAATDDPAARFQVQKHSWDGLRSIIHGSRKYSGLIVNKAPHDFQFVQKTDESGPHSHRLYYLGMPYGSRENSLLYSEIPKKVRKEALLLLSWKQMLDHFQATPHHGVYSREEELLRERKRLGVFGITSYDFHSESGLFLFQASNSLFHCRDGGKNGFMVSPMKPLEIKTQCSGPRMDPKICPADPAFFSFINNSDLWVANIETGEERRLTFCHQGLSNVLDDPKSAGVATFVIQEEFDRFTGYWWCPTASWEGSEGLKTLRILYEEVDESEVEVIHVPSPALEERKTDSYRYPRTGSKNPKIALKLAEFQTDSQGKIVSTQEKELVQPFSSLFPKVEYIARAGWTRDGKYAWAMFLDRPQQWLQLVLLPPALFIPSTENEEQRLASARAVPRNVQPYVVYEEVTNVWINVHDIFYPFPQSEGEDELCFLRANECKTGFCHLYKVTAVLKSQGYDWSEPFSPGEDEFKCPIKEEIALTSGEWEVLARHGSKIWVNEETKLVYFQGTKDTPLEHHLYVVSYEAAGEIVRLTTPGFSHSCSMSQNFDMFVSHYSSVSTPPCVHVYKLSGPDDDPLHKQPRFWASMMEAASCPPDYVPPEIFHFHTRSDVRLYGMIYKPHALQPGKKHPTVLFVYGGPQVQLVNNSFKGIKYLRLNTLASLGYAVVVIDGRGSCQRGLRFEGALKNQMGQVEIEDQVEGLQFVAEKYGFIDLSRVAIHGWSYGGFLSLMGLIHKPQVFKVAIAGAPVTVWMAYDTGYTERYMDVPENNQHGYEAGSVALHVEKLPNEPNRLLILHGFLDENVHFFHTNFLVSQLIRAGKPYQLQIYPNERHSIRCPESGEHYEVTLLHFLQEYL
FAP (Mus musculus (Mouse), UniProt P97321), sequence (P97321 24-761): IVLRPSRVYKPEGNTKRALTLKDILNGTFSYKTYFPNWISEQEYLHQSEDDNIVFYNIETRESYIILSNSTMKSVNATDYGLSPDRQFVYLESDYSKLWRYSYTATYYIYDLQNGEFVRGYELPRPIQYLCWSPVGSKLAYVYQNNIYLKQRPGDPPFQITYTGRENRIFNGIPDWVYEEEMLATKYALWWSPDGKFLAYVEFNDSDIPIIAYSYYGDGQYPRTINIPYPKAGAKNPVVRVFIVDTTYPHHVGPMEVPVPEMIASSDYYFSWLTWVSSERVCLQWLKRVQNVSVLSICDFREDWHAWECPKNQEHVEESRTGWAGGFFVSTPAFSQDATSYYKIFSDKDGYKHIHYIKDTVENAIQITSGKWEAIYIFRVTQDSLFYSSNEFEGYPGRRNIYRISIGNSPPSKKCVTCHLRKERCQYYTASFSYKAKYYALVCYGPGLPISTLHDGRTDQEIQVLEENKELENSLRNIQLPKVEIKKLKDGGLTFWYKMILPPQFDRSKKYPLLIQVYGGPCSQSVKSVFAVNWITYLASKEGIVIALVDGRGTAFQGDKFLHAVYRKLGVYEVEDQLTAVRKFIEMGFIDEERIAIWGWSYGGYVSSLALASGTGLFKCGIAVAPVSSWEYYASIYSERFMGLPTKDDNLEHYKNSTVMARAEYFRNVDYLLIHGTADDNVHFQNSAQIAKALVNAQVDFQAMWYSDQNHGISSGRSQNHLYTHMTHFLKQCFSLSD
hFAP (M39-A757), sequence (Q12884 39-757): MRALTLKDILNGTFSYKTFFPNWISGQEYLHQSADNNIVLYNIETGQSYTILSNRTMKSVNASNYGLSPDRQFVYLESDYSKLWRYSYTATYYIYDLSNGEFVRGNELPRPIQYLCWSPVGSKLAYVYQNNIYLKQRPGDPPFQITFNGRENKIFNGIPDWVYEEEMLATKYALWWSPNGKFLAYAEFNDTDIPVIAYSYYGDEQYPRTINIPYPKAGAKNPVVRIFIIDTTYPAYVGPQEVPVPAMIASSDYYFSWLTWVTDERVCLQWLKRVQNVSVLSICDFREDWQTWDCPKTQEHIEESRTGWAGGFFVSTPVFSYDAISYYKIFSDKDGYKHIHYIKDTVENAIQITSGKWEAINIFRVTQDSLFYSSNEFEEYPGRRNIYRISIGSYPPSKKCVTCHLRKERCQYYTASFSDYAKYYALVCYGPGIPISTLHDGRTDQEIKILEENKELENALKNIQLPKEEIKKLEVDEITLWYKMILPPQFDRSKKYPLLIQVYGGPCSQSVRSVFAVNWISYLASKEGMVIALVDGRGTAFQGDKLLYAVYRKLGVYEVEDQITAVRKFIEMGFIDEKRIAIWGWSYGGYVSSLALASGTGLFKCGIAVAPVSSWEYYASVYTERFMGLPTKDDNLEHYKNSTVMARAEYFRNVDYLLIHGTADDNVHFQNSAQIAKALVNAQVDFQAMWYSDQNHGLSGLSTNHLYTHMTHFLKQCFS
Prolyl endopeptidase, Prolyl Oligopeptidase (hPREP), sequence (P48147 whole entry): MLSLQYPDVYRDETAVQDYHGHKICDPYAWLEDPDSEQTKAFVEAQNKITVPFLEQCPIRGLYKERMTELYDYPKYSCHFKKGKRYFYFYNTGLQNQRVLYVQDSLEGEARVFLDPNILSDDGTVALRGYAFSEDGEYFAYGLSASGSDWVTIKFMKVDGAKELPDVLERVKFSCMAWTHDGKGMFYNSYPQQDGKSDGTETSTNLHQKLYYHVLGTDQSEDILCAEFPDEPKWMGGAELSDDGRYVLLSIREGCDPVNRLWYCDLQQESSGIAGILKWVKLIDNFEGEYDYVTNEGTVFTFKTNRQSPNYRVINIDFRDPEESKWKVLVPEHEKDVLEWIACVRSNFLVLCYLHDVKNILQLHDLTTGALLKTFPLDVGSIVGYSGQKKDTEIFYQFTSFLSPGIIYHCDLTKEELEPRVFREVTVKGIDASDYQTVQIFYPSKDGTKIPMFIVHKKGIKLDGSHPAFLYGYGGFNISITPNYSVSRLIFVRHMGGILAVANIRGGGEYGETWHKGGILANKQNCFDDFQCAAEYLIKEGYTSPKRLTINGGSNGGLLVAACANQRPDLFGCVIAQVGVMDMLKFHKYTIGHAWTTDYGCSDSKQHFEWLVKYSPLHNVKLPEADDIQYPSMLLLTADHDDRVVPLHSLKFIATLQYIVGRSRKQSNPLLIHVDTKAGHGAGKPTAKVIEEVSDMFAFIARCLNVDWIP
human dipeptidylpeptidase 8 (hDPP8), sequence (Q6V1X1 whole entry): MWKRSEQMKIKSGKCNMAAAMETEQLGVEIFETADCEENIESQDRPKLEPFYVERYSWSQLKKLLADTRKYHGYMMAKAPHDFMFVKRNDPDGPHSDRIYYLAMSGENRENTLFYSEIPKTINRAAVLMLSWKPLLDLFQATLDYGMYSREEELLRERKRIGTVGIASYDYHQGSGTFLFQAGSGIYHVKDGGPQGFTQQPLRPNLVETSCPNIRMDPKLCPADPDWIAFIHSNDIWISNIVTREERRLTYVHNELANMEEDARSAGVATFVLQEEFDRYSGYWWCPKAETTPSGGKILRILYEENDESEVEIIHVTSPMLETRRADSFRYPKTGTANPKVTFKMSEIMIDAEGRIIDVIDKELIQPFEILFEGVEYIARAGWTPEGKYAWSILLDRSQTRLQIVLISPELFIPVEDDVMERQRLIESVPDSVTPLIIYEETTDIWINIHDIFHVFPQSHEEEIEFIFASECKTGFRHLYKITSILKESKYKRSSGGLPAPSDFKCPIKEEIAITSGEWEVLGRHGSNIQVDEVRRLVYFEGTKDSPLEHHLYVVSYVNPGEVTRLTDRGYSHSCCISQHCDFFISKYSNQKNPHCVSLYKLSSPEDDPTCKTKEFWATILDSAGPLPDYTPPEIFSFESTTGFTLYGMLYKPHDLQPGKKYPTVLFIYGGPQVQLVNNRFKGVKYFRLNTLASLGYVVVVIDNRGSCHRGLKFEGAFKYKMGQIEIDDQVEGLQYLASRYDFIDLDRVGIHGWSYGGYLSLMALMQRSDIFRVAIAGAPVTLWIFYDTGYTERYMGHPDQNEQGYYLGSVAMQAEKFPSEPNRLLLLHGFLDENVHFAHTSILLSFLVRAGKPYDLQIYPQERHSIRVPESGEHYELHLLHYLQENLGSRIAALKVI
Fibroblast Activation Protein alpha (FAP), sequence (P97321 24-761): as the sequence (P97321 24-761) above
FAP (Homo sapiens (Human), UniProt Q12884), sequence (Q12884 38-760): as the sequence (Q12884 38-760) above

For C[C@@H]1CN(c2ccc3nccc(C(=O)NCC(=O)N4CSC[C@H]4C#N)c3c2)C[C@H](C)O1 [Example 68, N-(2-((R)-4-Cyanothiazolidin-3-yl)-2-oxoethyl)-6-((2R,6S)-2,6-dimethylmorpholino)-quinoline-4-carboxamide], the pIC50 [1] was 5.82, the pIC50 [2] was 5.77 and the “hFAP Binding assay k(off)” value (hFAP (M39-A757)) was 0.00011 s⁻¹. For the same molecule, the “hFAP Binding assay k(on)” value (hFAP (M39-A757)) was 1000000 M⁻¹ s⁻¹, the pIC50 [3] was 7.72 and the pIC50 (FAP [4]) was 9.30. The pIC50 [5] was less than 4.00 and the pIC50 [6] was 5.18.

In the case of C[C@@H]1CN(c2ccc3nccc(C(=O)NCC(=O)N4CSC[C@H]4C#N)c3c2)C[C@@H](C)O1 [Example 70, N-(2-((R)-4-Cyanothiazolidin-3-yl)-2-oxoethyl)-6-((2R,6R)-2,6-dimethylmorpholino)-quinoline-4-carboxamide], the pIC50 [1] was 5.85, the pIC50 [2] was 5.96 and the “hFAP Binding assay k(off)” value (hFAP (M39-A757)) was 0.00014 s⁻¹. For the same molecule, the “hFAP Binding assay k(on)” value (hFAP (M39-A757)) was 5400000 M⁻¹ s⁻¹, the pIC50 (FAP [4]) was 9.52 and the pIC50 [5] was less than 4.00. It also gave a pIC50 [6] of 5.33.

For C[C@@H]1CN(c2ccc3nccc(C(=O)NCC(=O)N4CSC[C@H]4C#N)c3c2)CCO1 [Example 72, N-(2-((R)-4-Cyanothiazolidin-3-yl)-2-oxoethyl)-6-((R)-2-methylmorpholino)-quinoline-4-carboxamide], the pIC50 [1] was 5.60, the solubility (Kinetic solubility) was greater than 1000 µM and the “rHep CLint” value [7] was 2.7 μL/min/1E6. The “hHep CLint” value [8] was less than 1 μL/min/1E6, the pIC50 [3] was 8.14 and the pIC50 (FAP [4]) was 9.70. It also gave a pIC50 [5] of less than 4.00, a Papp A→B (Caco-2 cell permeability) of 1.3 ×10⁻⁶ cm/s and a Papp B→A (Caco-2 cell permeability) of 24 ×10⁻⁶ cm/s. The microsomal CLint [9] was 9.7 µL/min/mg.

For N#C[C@@H]1CSCN1C(=O)CNC(=O)c1ccnc2ccc(N3CC4CC(C3)O4)cc12 [Example 77, 6-(6-Oxa-3-azabicyclo[3.1.1]heptan-3-yl)-N-(2-((R)-4-cyanothiazolidin-3-yl)-2-oxoethyl)quinoline-4-carboxamide], the solubility (physchem) was 850 µM (≈ 360 µg/mL), the pIC50 [2] was 6.33 and the microsomal CLint (in vitro [10]) was 7.1 µL/min/mg. For the same molecule, the Papp A→B (in vitro [11]) was 0.57 ×10⁻⁶ cm/s, the Papp B→A (in vitro [11]) was 16 ×10⁻⁶ cm/s and the efflux ratio (in vitro [11]) was 29. For the same molecule, the “hFAP Binding assay k(off)” value (hFAP (M39-A757)) was 0.000066 s⁻¹, the “hFAP Binding assay k(on)” value (hFAP (M39-A757)) was 4800000 M⁻¹ s⁻¹ and the pKd (hFAP (M39-A757)) was 10.85. For the same molecule, the pIC50 [12] was 10.29 and the “rHep CLint” value [13] was 5.4 μL/min/1E6.

In the case of N#C[C@@H]1CSCN1C(=O)CNC(=O)c1ccnc2ccc(N3C4CCCC3COC4)cc12 [Example 86, 6-(3-Oxa-9-azabicyclo[3.3.1]nonan-9-yl)-N-(2-((R)-4-cyanothiazolidin-3-yl)-2-oxoethyl)quinoline-4-carboxamide], the solubility (physchem) was 640 µM (≈ 289 µg/mL), the pIC50 [2] was 6.44 and the microsomal CLint (in vitro [10]) was 160 µL/min/mg. The “hFAP Binding assay k(off)” value (hFAP (M39-A757)) was 0.000058 s⁻¹, the “hFAP Binding assay k(on)” value (hFAP (M39-A757)) was 730000 M⁻¹ s⁻¹ and the pKd (hFAP (M39-A757)) was 10.09. For the same molecule, the pIC50 [12] was 10.13 and the “rHep CLint” value [13] was 44 μL/min/1E6.

N#C[C@@H]1CSCN1C(=O)CNC(=O)c1ccnc2ccc(N3C4CCC3CC4)cc12 [Example 209, (R)-6-(7-Azabicyclo[2.2.1]heptan-7-yl)-N-(2-(4-cyanothiazolidin-3-yl)-2-oxoethyl)quinoline-4-carboxamide] showed a solubility (physchem) of 970 µM (≈ 409 µg/mL), a pIC50 [2] of 6.27 and a microsomal CLint (in vitro [10]) of 170 µL/min/mg. For the same molecule, the “hFAP Binding assay k(off)” value (hFAP (M39-A757)) was 0.000042 s⁻¹, the “hFAP Binding assay k(on)” value (hFAP (M39-A757)) was 3200000 M⁻¹ s⁻¹ and the pKd (hFAP (M39-A757)) was 10.70. The pIC50 [12] was 9.82, the “rHep CLint” value [13] was 52 μL/min/1E6 and the pIC50 (FAP [14]) was 9.36.
